Experimental data reported in ChEMBL document CHEMBL3885881, “DrugMatrix”.

Organism: Rattus norvegicus
Experiment: DrugMatrix - Regimen: Daily Repeat
Type: toxicity, organism-based, Sprague-Dawley
Set-up: regimen Daily Repeat, gender Male, age 6-8 weeks
Details: in vivo, po, route oral GAVAGE, vehicle .5 % CMC; for ABSOLUTE BASOPHIL / ABSOLUTE EOSINOPHIL / ABSOLUTE LYMPHOCYTE / ABSOLUTE MONOCYTE / ABSOLUTE SEGMENTED NEUTROPHIL / BASOPHIL / EOSINOPHIL / ERYTHROCYTE COUNT / HEMATOCRIT / HEMOGLOBIN / LEUKOCYTE COUNT / LYMPHOCYTE / MEAN CORPUSCULAR HEMOGLOBIN / MEAN CORPUSCULAR HEMOGLOBIN CONCENTRATION / MEAN CORPUSCULAR VOLUME / MONOCYTE / NEUTROPHIL / NUCLEATED RED BLOOD CELLS / PLATELET COUNT: tissue Blood; for ALANINE AMINOTRANSFERASE / ALBUMIN / ALKALINE PHOSPHATASE / ASPARTATE AMINOTRANSFERASE / BLOOD UREA NITROGEN / CARBON DIOXIDE / CHLORIDE / CHOLESTEROL / CREATINE PHOSPHOKINASE / CREATININE / GLUCOSE / LACTATE DEHYDROGENASE / LIPASE / PHOSPHORUS / POTASSIUM / SODIUM / TOTAL BILIRUBIN / TOTAL PROTEIN / URIC ACID: tissue Plasma
[1] = 0 mg/kg, 72 h, dose level Control, time 3 day
[2] = 0 mg/kg, 120 h, dose level Control, time 5 day
[3] = 15 mg/kg, 72 h, dose level Low, time 3 day
[4] = 15 mg/kg, 120 h, dose level Low, time 5 day

## C[C@@H]1O[C@@H](O[C@H]2C[C@@H](O)[C@]3(CO)[C@H]4[C@H](O)C[C@]5(C)[C@@H](C6=CC(=O)OC6)CC[C@]5(O)[C@@H]4CC[C@]3(O)C2)[C@H](O)[C@H](O)[C@H]1O [OUABAIN]
[1]
  ABSOLUTE BASOPHIL: 0 CELLS/uL
  ABSOLUTE EOSINOPHIL: 130.33 CELLS/uL
  ABSOLUTE LYMPHOCYTE: 10030.67 CELLS/uL
  ABSOLUTE MONOCYTE: 41 CELLS/uL
  ABSOLUTE SEGMENTED NEUTROPHIL: 1298 CELLS/uL
  BASOPHIL: 0%
  EOSINOPHIL: 1%
  ERYTHROCYTE COUNT: 5.22 x10E6/uL
  HEMATOCRIT: 33.53%
  HEMOGLOBIN: 12.73 G/DL
  LEUKOCYTE COUNT: 11.5 x10E3/uL
  LYMPHOCYTE: 87.67%
  MEAN CORPUSCULAR HEMOGLOBIN: 24.45 pg
  MEAN CORPUSCULAR HEMOGLOBIN CONCENTRATION: 37.97 G/DL
  MEAN CORPUSCULAR VOLUME: 64.33 fL
  MONOCYTE: 0.33%
  NEUTROPHIL: 11%
  NUCLEATED RED BLOOD CELLS: 0 /100WBC
  PLATELET COUNT: 1310.5 x10E3/uL
  ALANINE AMINOTRANSFERASE: 52 u/L
  ALBUMIN: 4.22 G/DL
  ALKALINE PHOSPHATASE: 340.17 u/L
  ASPARTATE AMINOTRANSFERASE: 87.5 u/L
  BLOOD UREA NITROGEN: 15.17 mg/dL
  CARBON DIOXIDE: 25.5 mmol/L
  CHLORIDE: 101.83 MEQ/L
  CHOLESTEROL: 68.17 mg/dL
  CREATINE PHOSPHOKINASE: 379.67 u/L
  CREATININE: 0.17 mg/dL
  GLUCOSE: 181.67 mg/dL
  LACTATE DEHYDROGENASE: 256.17 u/L
  LIPASE: 8 u/L
  PHOSPHORUS: 12.1 mg/dL
  POTASSIUM: 5.88 MEQ/L
  SODIUM: 143.67 MEQ/L
  TOTAL BILIRUBIN: 0.18 mg/dL
  TOTAL PROTEIN: 5.92 G/DL
  URIC ACID: 1.7 mg/dL
[2]
  ABSOLUTE BASOPHIL: 0 CELLS/uL
  ABSOLUTE EOSINOPHIL: 31 CELLS/uL
  ABSOLUTE LYMPHOCYTE: 9599.17 CELLS/uL
  ABSOLUTE MONOCYTE: 52.83 CELLS/uL
  ABSOLUTE SEGMENTED NEUTROPHIL: 1050.33 CELLS/uL
  BASOPHIL: 0%
  EOSINOPHIL: 0.33%
  ERYTHROCYTE COUNT: 5.53 x10E6/uL
  HEMATOCRIT: 35.8%
  HEMOGLOBIN: 13.53 G/DL
  LEUKOCYTE COUNT: 10.73 x10E3/uL
  LYMPHOCYTE: 89%
  MEAN CORPUSCULAR HEMOGLOBIN: 24.47 pg
  MEAN CORPUSCULAR HEMOGLOBIN CONCENTRATION: 37.82 G/DL
  MEAN CORPUSCULAR VOLUME: 64.7 fL
  MONOCYTE: 0.5%
  NEUTROPHIL: 10.17%
  NUCLEATED RED BLOOD CELLS: 0 /100WBC
  PLATELET COUNT: 1028.5 x10E3/uL
  ALANINE AMINOTRANSFERASE: 45.33 u/L
  ALBUMIN: 4.33 G/DL
  ALKALINE PHOSPHATASE: 351.83 u/L
  ASPARTATE AMINOTRANSFERASE: 73.5 u/L
  BLOOD UREA NITROGEN: 17.83 mg/dL
  CARBON DIOXIDE: 24.67 mmol/L
  CHLORIDE: 100 MEQ/L
  CHOLESTEROL: 67 mg/dL
  CREATINE PHOSPHOKINASE: 284 u/L
  CREATININE: 0.2 mg/dL
  GLUCOSE: 152.33 mg/dL
  LACTATE DEHYDROGENASE: 108.67 u/L
  LIPASE: 8.17 u/L
  PHOSPHORUS: 11.17 mg/dL
  POTASSIUM: 6.14 MEQ/L
  SODIUM: 144.68 MEQ/L
  TOTAL BILIRUBIN: 0.22 mg/dL
  TOTAL PROTEIN: 6.08 G/DL
  URIC ACID: 1.27 mg/dL
[3]
  ABSOLUTE BASOPHIL: 0 CELLS/uL
  ABSOLUTE EOSINOPHIL: 189.33 CELLS/uL
  ABSOLUTE LYMPHOCYTE: 10886.33 CELLS/uL
  ABSOLUTE MONOCYTE: 47.33 CELLS/uL
  ABSOLUTE SEGMENTED NEUTROPHIL: 1443.67 CELLS/uL
  BASOPHIL: 0%
  EOSINOPHIL: 1.33%
  ERYTHROCYTE COUNT: 5.55 x10E6/uL
  HEMATOCRIT: 35.67%
  HEMOGLOBIN: 13.2 G/DL
  LEUKOCYTE COUNT: 12.57 x10E3/uL
  LYMPHOCYTE: 86.67%
  MEAN CORPUSCULAR HEMOGLOBIN: 23.77 pg
  MEAN CORPUSCULAR HEMOGLOBIN CONCENTRATION: 37 G/DL
  MEAN CORPUSCULAR VOLUME: 64.2 fL
  MONOCYTE: 0.33%
  NEUTROPHIL: 11.67%
  NUCLEATED RED BLOOD CELLS: 0 /100WBC
  PLATELET COUNT: 1296 x10E3/uL
  ALANINE AMINOTRANSFERASE: 52.67 u/L
  ALBUMIN: 4.2 G/DL
  ALKALINE PHOSPHATASE: 382.67 u/L
  ASPARTATE AMINOTRANSFERASE: 73.67 u/L
  BLOOD UREA NITROGEN: 15 mg/dL
  CARBON DIOXIDE: 27 mmol/L
  CHLORIDE: 99 MEQ/L
  CHOLESTEROL: 70.33 mg/dL
  CREATINE PHOSPHOKINASE: 215.33 u/L
  CREATININE: 0.16 mg/dL
  GLUCOSE: 166.33 mg/dL
  LACTATE DEHYDROGENASE: 88 u/L
  LIPASE: 8 u/L
  PHOSPHORUS: 12.23 mg/dL
  POTASSIUM: 6.54 MEQ/L
  SODIUM: 144.1 MEQ/L
  TOTAL BILIRUBIN: 0.27 mg/dL
  TOTAL PROTEIN: 5.93 G/DL
  URIC ACID: 1.97 mg/dL
[4]
  ABSOLUTE BASOPHIL: 0 CELLS/uL
  ABSOLUTE EOSINOPHIL: 66.67 CELLS/uL
  ABSOLUTE LYMPHOCYTE: 12127.33 CELLS/uL
  ABSOLUTE MONOCYTE: 105.67 CELLS/uL
  ABSOLUTE SEGMENTED NEUTROPHIL: 1600.33 CELLS/uL
  BASOPHIL: 0%
  EOSINOPHIL: 0.67%
  ERYTHROCYTE COUNT: 5.76 x10E6/uL
  HEMATOCRIT: 36.63%
  HEMOGLOBIN: 13.7 G/DL
  LEUKOCYTE COUNT: 13.9 x10E3/uL
  LYMPHOCYTE: 88.33%
  MEAN CORPUSCULAR HEMOGLOBIN: 23.77 pg
  MEAN CORPUSCULAR HEMOGLOBIN CONCENTRATION: 37.4 G/DL
  MEAN CORPUSCULAR VOLUME: 63.6 fL
  MONOCYTE: 0.67%
  NEUTROPHIL: 10.33%
  NUCLEATED RED BLOOD CELLS: 0 /100WBC
  PLATELET COUNT: 1337.67 x10E3/uL
  ALANINE AMINOTRANSFERASE: 44 u/L
  ALBUMIN: 4.3 G/DL
  ALKALINE PHOSPHATASE: 417.67 u/L
  ASPARTATE AMINOTRANSFERASE: 84.33 u/L
  BLOOD UREA NITROGEN: 17.33 mg/dL
  CARBON DIOXIDE: 25.67 mmol/L
  CHLORIDE: 102.33 MEQ/L
  CHOLESTEROL: 74.67 mg/dL
  CREATINE PHOSPHOKINASE: 260 u/L
  CREATININE: 0.26 mg/dL
  GLUCOSE: 167.33 mg/dL
  LACTATE DEHYDROGENASE: 187.67 u/L
  LIPASE: 8.67 u/L
  PHOSPHORUS: 11.83 mg/dL
  POTASSIUM: 6.55 MEQ/L
  SODIUM: 145.07 MEQ/L
  TOTAL BILIRUBIN: 0.17 mg/dL
  TOTAL PROTEIN: 6.2 G/DL
  URIC ACID: 1.8 mg/dL
